For data set [1], the system named is S. lividans pCAO200SU1-FeS-B#9. In words: Sulfonylurea metabolism by washed cell suspension (Examples 6-9). Type of data set: in vitro ADME, Streptomyces lividans.
Another data set deals with S. ambofaciens PH3834. In words: Metabolism of 10001 by strains transformed with pPAT108 (Example 14). It is filed as in vitro ADME, Streptomyces ambofaciens. The following applies: substrate 10001 120 ug/ml. On the procedure: (§1) S. griseolus PH2003, S. griseus PH4001, S. ambofaciens PH4002, and S. lividans JI1326 were transformed with the plasmid pPAT108. The transformed S. griseolus strain, PH3826, was cultured for 24 hours in 150 mls of sporulation broth with 5 ug/ml thiostrepton. The transformed S. griseus strain, PH3832, and the transformed S. ambofaciens strain, PH3834, were cultured for 24 hours in 150 mls of trypticase soy broth with 5 ug/ml thiostrepton. The transformed S. lividans strain, PH3822, was similarly cultured in 150 mls of YEME broth with 5 ug/ml thiostrepton. Three hours before harvesting the cells, 50 mls of fresh medium of the same type with 5 ug/ml thiostrepton was added to each culture. The cells from each of the cultures were harvested by centrifugation, washed twice with 50 mMMOPS, pH7.2 and resuspended in five cell volumes of MOPS containing 0.2% glucose and 120 ug/ml of the sulfonylurea 10001. The cell suspensions were incubated at 30° C. with shaking and aliquots were removed at 0.5, 1, 2 and 4 hours. The supernatant of each aliquot was analyzed by HPLC and the concentration of the sulfonylurea compound 10001 and its metabolites 10002 and 10003 were determined.

For data set [2], the system named is S. griseolus PH2001 induced with 10001. In words: Sulfonylurea metabolism by washed cell suspension (Examples 11-12). It is filed as in vitro ADME, Streptomyces griseolus. The method, then:
(§2) A 100 ml culture of S. griseolus ATCC 11796 in sporulation broth and a 50 ml culture of S. lividans transformed with pCAO400 in YEME broth were prepared and incubated for 24 hours as described. At that time, the S. griseolus culture was split into two 50 ml aliquots into two separate flasks and 25 ml of fresh sporulation broth was added to each and 9 mg of […] was added to one of these cultures to induce cytochrome P450SU1 expression. Fresh YEME broth (25 ml) was added to the S. lividans culture. After an additional 6 hours growth at 30° C., the cells in each culture were harvested as described above, washed twice with MOPS (50 mM, pH 7.2) and recentrifuged. The cell pellets were resuspended in four cell volumes of MOPS (50 mM, pH 7.2) containing 0.2% glucose and about 100 μg/ml of 10004. These cell suspensions were incubated at 30° C. with shaking and aliqouts were taken at 2 and 5.5 hours. The supernatant of each aliquot was analyzed by HPLC and the concentrations of the sulfonylurea compound 10004 and its metabolite 10005 were determined.
(§3) S. lividans transformed respectively with pCAO200SU1-FeS-B#9, pCAO200SU#112and pCAO200 were cultured for 36 hours in 400 ml of YEME broth at 30° C. S. griseolus ATCC 11796 was similarly cultured in 400 ml of sporulation broth. Six hours before harvesting the cells, 150 ml of fresh YEME broth was added to the S. lividans cells, and the S. griseolus cells were split into two 200 ml cultures with 100 ml of fresh sporulation broth added to each. 10001 (36 mg) was added to one of the two S. griseolus cultures to induce cytochrome P450SU1. The cells were prepared as described above in Example 5 and the concentrations of the sulfonylurea compound 10006 and its metabolites 10007, 10008 or 10009 were determined.
(§4) S. lividans transformed with pCAO200SU2-FeS-A#11 and S. lividans transformed with pCAO200 were cultured for 36 hours in 400 ml of YEME broth at 30° C. S. griseolus PH2001 (mutant without SU1) was cultured in 400 ml of sporulation broth at 30° C. Nine hours before harvesting the cells, the S. griseolus PH2001 culture was divided into two 200 ml cultures. Both received 100 ml of fresh sporulation broth and one received 36 mg of 10001 to induce cytochrome P450SU2. The cells were prepared as described above in Example 6 and the concentrations of the sulfonylurea compound 10001 and its metabolites 10002 and 10003 were determined.

Data set [3] concerns S. griseolus PH2001 uninduced. The data set is described as above. Type of data set: in vitro ADME, Streptomyces griseolus. The method, then:
as §2, §3, §4

The subject of another data set is S. lividans PH3822. Kind of data set: Metabolism of 10001 by strains transformed with pPAT108 (Example 14). Type of data set: in vitro ADME, Streptomyces lividans. Conditions: substrate 10001 120 ug/ml. On the procedure: as §1
Data set [4] deals with S. griseolus ATCC 11796 induced with 10001. Kind of data set: Sulfonylurea metabolism by washed cell suspension (Examples 5-9). Type of data set: in vitro ADME, Streptomyces griseolus.
In data set [5] the test system is S. griseolus ATCC 11796 uninduced. Described as above. It is filed as in vitro ADME, Streptomyces griseolus. On the procedure: Herbicides and their metabolites are measured by HPLC as described by Romesser et al., BBRC 140: 650-659 (1986), herein incorporated by reference, except that 0.1% H3 PO4 is used in both solvents. Chromatographic identity and quantitation of the herbicides and their resulting metabolites is determined by comparing them chromatographically with authentic standard compounds. Identity of the resulting metabolites is also confirmed by UV spectroscopy.
as §2, §3

As to `CCOC(=O)c1ccccc1S(=O)(=O)NC(=O)Nc1nc(Cl)cc(OC)n1` [compound 10001, N-[(4-chloro-6-methoxy-pyrimidin-2-yl)aminocarbonyl]-2-ethoxycarbonylbenzenesulfonamide], the concentration in supernatant came to 28 µM in data set [1] (substrate 10001, 2 h); 0 µM in data set [1] (substrate 10001, 4 h); 0 µM in data set [1] (substrate 10001, 6 h); 278 µM in the data set with S. ambofaciens PH3834 (1.0 h); 250 µM in the data set with S. ambofaciens PH3834 (2.0 h); 191 µM with S. ambofaciens PH3834 (4.0 h). In addition, the concentration in supernatant in data set [2] (substrate 10001, 2 h) came to 286 µM; in data set [2] (substrate 10001, 4 h), 256 µM; in data set [2] (substrate 10001, 6 h), 234 µM; in data set [3] (substrate 10001, 2 h) it was 271 µM; in data set [3] (substrate 10001, 4 h) it was 264 µM; in data set [3] (substrate 10001, 6 h) it was 244 µM. Also, the concentration in supernatant was found to be 294 µM in the data set with S. lividans PH3822 (0.5 h); 284 µM with S. lividans PH3822 (1.0 h); 262 µM in the data set with S. lividans PH3822 (2.0 h); 232 µM in the data set on S. lividans PH3822 (4.0 h); 220 µM in data set [4] (substrate 10001, 2 h); 36 µM in data set [4] (substrate 10001, 4 h). Also, the concentration in supernatant is 3 µM in data set [4] (substrate 10001, 6 h); 244 µM in data set [5] (substrate 10001, 2 h); 167 µM in data set [5] (substrate 10001, 4 h); 86 µM in data set [5] (substrate 10001, 6 h).
For the compound `CCOC(=O)c1ccccc1S(=O)(=O)NC(=O)Nc1nc(O)cc(Cl)n1` [compound 10002, N-[(4-chloro-6-hydroxy-pyrimidin-2-yl)aminocarbonyl]-2-ethoxycarbonylbenzenesulfonamide], the concentration in supernatant was 105 µM in data set [1] (substrate 10001, 2 h); 116 µM in data set [1] (substrate 10001, 4 h); 112 µM in data set [1] (substrate 10001, 6 h); 6 µM with S. ambofaciens PH3834 (0.5 h); 11 µM with S. ambofaciens PH3834 (1.0 h); 27 µM in the data set on S. ambofaciens PH3834 (2.0 h). Moreover, the concentration in supernatant in the data set on S. ambofaciens PH3834 (4.0 h) was 64 µM; with S. lividans PH3822 (0.5 h), 2 µM; in the data set on S. lividans PH3822 (1.0 h), 5 µM; in the data set with S. lividans PH3822 (2.0 h), 10 µM; in the data set on S. lividans PH3822 (4.0 h) it was 25 µM.
For `COc1cc(Cl)nc(NC(=O)NS(=O)(=O)c2ccccc2C(=O)O)n1` [compound 10003, N-[(4-chloro-6-methoxy-pyrimidin-2-yol)aminocarbonyl]-2-carboxybenzenesulfonamide], the concentration in supernatant in data set [1] (substrate 10001, 2 h) was 86 µM; in data set [1] (substrate 10001, 4 h) it was 95 µM; in data set [1] (substrate 10001, 6 h), 94 µM; in the data set on S. ambofaciens PH3834 (0.5 h), 1 µM; with S. ambofaciens PH3834 (1.0 h) it was 6 µM; in the data set with S. ambofaciens PH3834 (2.0 h), 14 µM. In addition, the concentration in supernatant with S. ambofaciens PH3834 (4.0 h) is 33 µM; in data set [2] (substrate 10001, 2 h), 7 µM; in data set [2] (substrate 10001, 4 h), 10 µM; in data set [2] (substrate 10001, 6 h), 13 µM; in data set [3] (substrate 10001, 2 h) it was 1 µM; in data set [3] (substrate 10001, 4 h), 2 µM. For the same compound, the concentration in supernatant is 3 µM in data set [3] (substrate 10001, 6 h); 1 µM in the data set with S. lividans PH3822 (0.5 h); 3 µM with S. lividans PH3822 (1.0 h); 5 µM in the data set with S. lividans PH3822 (2.0 h); 15 µM with S. lividans PH3822 (4.0 h); 76 µM in data set [4] (substrate 10001, 2 h). Besides, the concentration in supernatant was determined as 128 µM in data set [4] (substrate 10001, 4 h); 142 µM in data set [4] (substrate 10001, 6 h); 14 µM in data set [5] (substrate 10001, 2 h); 37 µM in data set [5] (substrate 10001, 4 h); 62 µM in data set [5] (substrate 10001, 6 h).
In the case of `COC(=O)c1ccccc1S(=O)(=O)NC(=O)Nc1nc(C)cc(C)n1` [compound 10010, N-[(4,6-dimethylpyrimidin-2-yl)aminocarbonyl]-2-methoxycarbonylbenzenesulfonamide], the concentration in supernatant came out at 35 µM in data set [1] (substrate 10010, 2 h); 11 µM in data set [1] (substrate 10010, 4 h); 4 µM in data set [1] (substrate 10010, 6 h); 64 µM in data set [2] (substrate 10010, 2 h); 56 µM in data set [2] (substrate 10010, 4 h); 50 µM in data set [2] (substrate 10010, 6 h). The concentration in supernatant in data set [3] (substrate 10010, 2 h) turned out to be 89 µM; in data set [3] (substrate 10010, 4 h), 88 µM; in data set [3] (substrate 10010, 6 h), 89 µM; in data set [4] (substrate 10010, 2 h), 40 µM; in data set [4] (substrate 10010, 4 h), 8 µM; in data set [4] (substrate 10010, 6 h), 4 µM. In addition, the concentration in supernatant is 70 µM in data set [5] (substrate 10010, 2 h); 49 µM in data set [5] (substrate 10010, 4 h); 37 µM in data set [5] (substrate 10010, 6 h).

The values are drawn from patent US5349127A, “Expression of herbicide metabolizing cytochromes P450” (priority 1992, dated 1994).
